Where “and” joins values, the source holds several entries; their conditions need not be identical. Identical values can stand only once.
How the values were obtained:
[1] = tested on: PIP3 (prostate) cancer cell line; test: MTS cell proliferation assay, PIP3; assay type: cell-based
Procedure: Cell proliferation was determined using the CellTiter 96 Aqueous One Solution Cell Proliferation Assay MTS assay. A549 NSCLC cells were plated at 1.5×10^3 cells per well in flat bottom 96 well plates in 99 μL of media and allowed to adhere overnight. The drugs were serially diluted in 100% DMSO. For each drug treatment group, 1 μL of a 100× stock solution was added to each well for a final DMSO concentration of 1%. Cells were treated for 24, 48 or 72 hours. Cells were incubated with MTS dye (20 μL well^−1) for 40 min to 2 h. Absorbance at 490 nm was determined using a SpectraMax M2 (Molecular Devices) plate reader. The percent cell proliferation was calculated by converting the experimental absorbance to percentage of control, which was then plotted vs. drug concentration. The IC50 values were determined using a non-linear dose-response analysis in GraphPad Prism version 4.0. The IC50 is defined as the concentration of drug needed to cause a 50% decrease in proliferation compared to vehicle control.
The activity of Clodronate prodrug (14) was tested against other cell lines, include prostate (PIP3) and breast (MDA-MB-453) cancer cells lines. Cell proliferation was determined using the CellTiter 96 Aqueous One Solution Cell Proliferation Assay MTS assay as discussed above. Results are shown in FIG. 22 and in the table below.

[2] = In vivo tolerance study, I.V. dosing (tail vein); parameters: species or system Balb/c mice
Procedure: Ten Balb/c mice were split into three groups: untreated, vehicle and clodronate prodrug. Untreated mice received no treatment or injection. The vehicle was 100 μL 10% cremaphor in ddH20 injected into the tale vein. 100 μL of 3 mM Clodronate Prodrug dissolved in 10% cremaphor in ddH20. (100 μL of 3 mM is about 14 mg/kg).

[3] = tested on: HOP-62; test: NCI-60 DTP Human Tumor Cell Line Screen; assay type: cell-based; conditions: HOP-62, Non-Small Cell Lung Cancer, 48 h
[4] = tested on: NCI-H226; test: NCI-60 DTP Human Tumor Cell Line Screen; assay type: cell-based; conditions: NCI-H226, Non-Small Cell Lung Cancer, 48 h
[5] = tested on: NCI-H460; test: NCI-60 DTP Human Tumor Cell Line Screen; assay type: cell-based; conditions: NCI-H460, Non-Small Cell Lung Cancer, 48 h
[6] = tested on: NCI-H522; test: NCI-60 DTP Human Tumor Cell Line Screen; assay type: cell-based; conditions: NCI-H522, Non-Small Cell Lung Cancer, 48 h
[7] = tested on: HCC-2998; test: NCI-60 DTP Human Tumor Cell Line Screen; assay type: cell-based; conditions: HCC-2998, Colon Cancer, 48 h
[8] = tested on: HCT-116; test: NCI-60 DTP Human Tumor Cell Line Screen; assay type: cell-based; conditions: HCT-116, Colon Cancer, 48 h
[9] = tested on: SF-268; test: NCI-60 DTP Human Tumor Cell Line Screen; assay type: cell-based; conditions: SF-268, CNS Cancer, 48 h
[10] = tested on: SF-295; test: NCI-60 DTP Human Tumor Cell Line Screen; assay type: cell-based; conditions: SF-295, CNS Cancer, 48 h
[11] = tested on: SF-539; test: NCI-60 DTP Human Tumor Cell Line Screen; assay type: cell-based; conditions: SF-539, CNS Cancer, 48 h
[12] = tested on: SNB-19; test: NCI-60 DTP Human Tumor Cell Line Screen; assay type: cell-based; conditions: SNB-19, CNS Cancer, 48 h
[13] = tested on: SNB-75; test: NCI-60 DTP Human Tumor Cell Line Screen; assay type: cell-based; conditions: SNB-75, CNS Cancer, 48 h
[14] = tested on: LOX IMVI; test: NCI-60 DTP Human Tumor Cell Line Screen; assay type: cell-based; conditions: Melanoma, 48 h
[15] = tested on: SK-MEL-2; test: NCI-60 DTP Human Tumor Cell Line Screen; assay type: cell-based; conditions: SK-MEL-2, Melanoma, 48 h
[16] = tested on: SK-MEL-28; test: NCI-60 DTP Human Tumor Cell Line Screen; assay type: cell-based; conditions: SK-MEL-28, Melanoma, 48 h
[17] = tested on: UACC-257; test: NCI-60 DTP Human Tumor Cell Line Screen; assay type: cell-based; conditions: UACC-257, Melanoma, 48 h
[18] = tested on: OPVCAR-5; test: NCI-60 DTP Human Tumor Cell Line Screen; assay type: cell-based; conditions: OPVCAR-5, Ovarian Cancer, 48 h
[19] = tested on: MDA-MB-231/ATCC; test: NCI-60 DTP Human Tumor Cell Line Screen; assay type: cell-based; conditions: Breast Cancer, 48 h

For `CN(CCCCCl)P(=O)(OCc1ccc([N+](=O)[O-])cc1)C(Cl)(Cl)P(=O)(OCc1ccc([N+](=O)[O-])cc1)N(C)CCCCCl` (centres unmarked) [compound 14], the EC50 [1] was 3000 nM, the Mouse weight ([2]; Mar. 21, 2011, i.v. 100 μL of 3 mM (about 14 mg/kg), individual mice, listed as cloprodrug) was 15.9 g and 14.5 g and 15.6 g and the Δ in weight ([2]; Mar. 21 to Mar. 28, 2011, i.v. about 14 mg/kg, individual mice, listed as cloprodrug) was 2.2 g and 2.7 g and 0.6 g. For the same compound, the Mouse weight ([2]; Mar. 23, 2011, i.v. about 14 mg/kg, individual mice, listed as cloprodrug) was 17.6 g and 16.4 g and 16.2 g, the Mouse weight ([2]; Mar. 25, 2011, i.v. about 14 mg/kg, individual mice, listed as cloprodrug) was 18.2 g and 16.8 g and 16.4 g and the Mouse weight ([2]; Mar. 28, 2011, i.v. about 14 mg/kg, individual mice, listed as cloprodrug) was 18.1 g and 17.2 g and 16.2 g. The behavior ([2]; i.v. about 14 mg/kg) was “no unusual behavior observed”, the “difference in weight between the three treatment groups” value ([2]; i.v. about 14 mg/kg vs vehicle and untreated) was “no significant difference in weight” and the Log10GI50 [3] was over −4.00. For the same compound, the Log10LC50 [3] was over −4.00, the Log10TGI [3] was over −4.00 and the Log10GI50 [4] was −5.52. It also gave a Log10LC50 [4] of over −4.00, a Log10TGI [4] of over −4.00 and a Log10GI50 [5] of −5.42. For the same compound, the Log10LC50 [5] was over −4.00, the Log10TGI [5] was over −4.00 and the Log10GI50 [6] was −5.66. The Log10LC50 [6] was over −4.00, the Log10TGI [6] was −5.11 and the Log10GI50 [7] was −5.25. It also gave a Log10LC50 [7] of −4.46, a Log10TGI [7] of over −4.00 and a Log10GI50 [8] of −5.58. For the same compound, the Log10LC50 [8] was over −4.00, the Log10TGI [8] was over −4.00 and the Log10GI50 [9] was −5.55. It also gave a Log10LC50 [9] of over −4.00, a Log10TGI [9] of over −4.00 and a Log10GI50 [10] of −5.61. It also gave a Log10LC50 [10] of over −4.00, a Log10TGI [10] of −4.77 and a Log10GI50 [11] of −5.44. The Log10LC50 [11] was over −4.00, the Log10TGI [11] was over −4.00 and the Log10GI50 [12] was −5.30. For the same compound, the Log10LC50 [12] was over −4.00, the Log10TGI [12] was over −4.00 and the Log10GI50 [13] was −5.65. For the same compound, the Log10LC50 [13] was over −4.00, the Log10TGI [13] was −5.17 and the Log10GI50 [14] was −5.75. It also gave a Log10LC50 [14] of −4.26, a Log10TGI [14] of −5.33 and a Log10GI50 [15] of −5.60. The Log10LC50 [15] was over −4.00, the Log10TGI [15] was −5.18 and the Log10GI50 [16] was −5.42. It also gave a Log10LC50 [16] of over −4.00, a Log10TGI [16] of over −4.00 and a Log10GI50 [17] of −5.56. The Log10LC50 [17] was over −4.00, the Log10TGI [17] was −5.10 and the Log10GI50 [18] was −5.45. It also gave a Log10LC50 [18] of over −4.00, a Log10TGI [18] of over −4.00 and a Log10GI50 [19] of −5.51. For the same compound, the Log10LC50 [19] was over −4.00 and the Log10TGI [19] was over −4.00.
